Measurements from PMC3966047, “Analysis of the minimal specificity of caspase-2 and identification of Ac-VDTTD-AFC as a caspase-2-selective peptide substrate” (Bioscience Reports, 2014).
“Also recorded” adds a separate entry of the source. Read-outs that look alike come from different tables or passages of the source. Each block holds one molecule with its values, some of them ahead of it. The star is where a group is joined. AFC = O=c1cc(C(F)(F)F)c2ccc(N*)cc2o1

Key:
caspase-2 [1] = conditions: cited from earlier work
Excerpt: It seems likely that identification of caspase-2 substrates may provide valuable clues to its biological role. […] Apoptotic signalling by caspase-2 has been proposed to result from its processing of the pro-apoptotic Bcl-2 relative Bid. […] Runx1 plays a critical role in haematopoiesis, and Runx1 translocations or other mutations occur frequently in myeloid leukaemias, and less commonly in other cancer types.

caspase-2 [2] = conditions: aldehyde inhibitors; cited from earlier work
Excerpt: (§1) Research into caspase-2 biology has been hampered by a dearth of selective reagents capable of distinguishing between caspases-2 and -3. Peptides and inhibitors based on the sequence VDVAD are marketed as ‘caspase-2-specific’ but also react strongly with caspase-3.

caspase-3 [3] = target: T1, caspase-3 (Homo sapiens, UniProt P42574); conditions: aldehyde inhibitors; cited from earlier work
T1 construct: made in house; host or cells: E. coli BL21(DE3)pLysS
T1 sequence (P42574 29-175 limits assumed): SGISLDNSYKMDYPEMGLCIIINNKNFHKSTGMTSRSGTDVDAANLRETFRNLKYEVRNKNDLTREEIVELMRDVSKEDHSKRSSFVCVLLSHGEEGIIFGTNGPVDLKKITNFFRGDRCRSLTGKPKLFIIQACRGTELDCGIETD
T1 sequence (P42574 176-277 limits assumed): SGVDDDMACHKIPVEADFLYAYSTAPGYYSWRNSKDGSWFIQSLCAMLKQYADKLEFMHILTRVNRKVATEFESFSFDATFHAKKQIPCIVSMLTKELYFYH
Excerpt: as §1

caspase-3 [4] = target: T1, caspase-3; experiment: Fluorogenic peptide cleavage by purified caspase-3 (AFC release); format: biochemical
Method: (§2) Caspases-2, -3 and -8 were purified using NiNTA resin (Qiagen) from BL21(DE3)pLysS bacteria (Novagen/Merck) transformed with pET23a–caspase-2^Δ1−149 [44], pET23a–caspase-3 [54] or pET15b–caspase-8^Δ1−216 plasmids. Induction conditions were: caspase-2, 0.4 mM IPTG (isopropyl β-D-thiogalactoside), 2 h 37°C; caspase-3, 0.2 mM IPTG, 3 h 30°C; caspase-8, 1 mM IPTG, 4 h 25°C. Caspases were active site-titrated using zVAD-fmk (Merck). ArcticExpress DE3 bacteria (Agilent Technologies) were transformed with the pET23a Bid expression plasmids described above, induced for 48 h at 10°C using 1 mM IPTG, then the His6-tagged Bid proteins were purified using NiNTA resin (Qiagen). Recombinant proteins were quantitated using the Bicinchoninic acid protein assay kit (Sigma). Runx1 proteins were synthesized using the TNT T7 quick coupled transcription/translation system (Promega) with non-radioactive methionine, using intact Runx1–pET23a plasmids as templates. The concentration of Runx1 proteins was determined by quantitative anti-His6 immunoblotting, using purified AcP35–His6 [56] as a standard.
Caspases were pre-activated for 30 min at 37°C in their preferred buffers, then diluted and mixed with fluorogenic peptide substrates. Fluorescence (excitation 410 nm, emission 500 nm) was measured every 10–60 s for up to 1 h using a FluoStar Galaxy (BMG Labtech). The maximal slope of each curve was calculated. A standard curve, using free AFC (Sigma), was used to convert fluorescence emissions into concentration of AFC produced during the cleavage reactions. Prism 5.0 software was used to determine kcat and KM from three to four independent experiments, as previously described. Ac-DEVD-AFC and Ac-VDVAD-AFC were purchased from Enzo Life Sciences. The custom substrates Ac-VDTTD-AFC and Ac-VDVPD-AFC were synthesized by 21st Century Biochemicals. […] The SuperSignal West Dura Substrate (Thermo Scientific) was used to detect signals and quantitation of sub-saturated exposures was performed using a Syngene G:Box and Image Lab 3.0 software (BioRad). […]

caspase-2 [5] = experiment: Fluorogenic peptide cleavage by purified caspase-2 (AFC release); format: biochemical
Method: as §2
(§3) Caspases were pre-activated for 30 min at 37°C in their preferred buffers, then diluted and mixed with fluorogenic peptide substrates. Fluorescence (excitation 410 nm, emission 500 nm) was measured every 10–60 s for up to 1 h using a FluoStar Galaxy (BMG Labtech). The maximal slope of each curve was calculated. A standard curve, using free AFC (Sigma), was used to convert fluorescence emissions into concentration of AFC produced during the cleavage reactions. Prism 5.0 software was used to determine kcat and KM from three to four independent experiments, as previously described. Ac-DEVD-AFC and Ac-VDVAD-AFC were purchased from Enzo Life Sciences. The custom substrates Ac-VDTTD-AFC and Ac-VDVPD-AFC were synthesized by 21st Century Biochemicals. 150 nM Bid or 100 nM Runx1 proteins were incubated with specified concentrations of caspases in their preferred buffers for 1 h (Runx1) or 0.5 h (Bid variants) at 37°C, then subjected to SDS–PAGE and immunoblotting with anti-Bid (#AF860 R&D Systems) or anti-His6 antibodies (#A00186 GenScript). Secondary antibodies were anti-mouse-HRP (#A9044, Sigma) or anti-goat-HRP (#6300-05, Southern Biotech). The SuperSignal West Dura Substrate (Thermo Scientific) was used to detect signals and quantitation of sub-saturated exposures was performed using a Syngene G:Box and Image Lab 3.0 software (BioRad). Linear regression was used to determine the caspase concentration, which cleaved half of each protein.

[6] = test system: auto-activating caspase-2 in HEK-293T cell lysate; experiment: Fluorogenic peptide cleavage by lysates of HEK-293T cells expressing auto-activating caspase-2; format: biochemical, human embryonic kidney cells; conditions: HEK-293T lysates with auto-activating caspase-2 or -3, 0.1 mM substrate
Method: as §3
HEK-293T cells [human embryonic kidney cells expressing the large T-antigen of SV40 (simian virus 40)] were cultured, transfected, harvested and lysed as described except that protease inhibitors were not used. Each lysate was mixed with the appropriate fluorogenic substrate (0.1 mM) in caspase buffer, and fluorescence was monitored as outlined above.

caspase-3 [7] = target: T1, caspase-3; experiment: Bid protein cleavage by caspase-3 (anti-Bid immunoblot); format: biochemical; conditions: 150 nM Bid protein, 0.5 h, 37°C
Method: as §2, with “Runx1 proteins were synthesized using the TNT T7 quick coupled transcription/translation system (Promega) with non-radioactive methionine, using intact Runx1–pET23a plasmids as templates.” left out
(§4) Caspases were pre-activated for 30 min at 37°C in their preferred buffers, then diluted and mixed with fluorogenic peptide substrates. Fluorescence (excitation 410 nm, emission 500 nm) was measured every 10–60 s for up to 1 h using a FluoStar Galaxy (BMG Labtech). The maximal slope of each curve was calculated. A standard curve, using free AFC (Sigma), was used to convert fluorescence emissions into concentration of AFC produced during the cleavage reactions. […]

caspase-8 [8] = experiment: Bid protein cleavage by caspase-8 (anti-Bid immunoblot); format: biochemical; conditions: 150 nM Bid protein, 0.5 h, 37°C
Method: as §2, with “Runx1 proteins were synthesized using the TNT T7 quick coupled transcription/translation system (Promega) with non-radioactive methionine, using intact Runx1–pET23a plasmids as templates.” left out
as §4

caspase-2 [9] = experiment: Bid protein cleavage by caspase-2 (anti-Bid immunoblot); format: biochemical; conditions: 150 nM Bid protein, 0.5 h, 37°C, preferred buffer, from caspase concentration cleaving half of the substrate
Method: as §2, with “Runx1 proteins were synthesized using the TNT T7 quick coupled transcription/translation system (Promega) with non-radioactive methionine, using intact Runx1–pET23a plasmids as templates.” left out
as §4

caspase-8 [10] = conditions: subsequent data; cited from earlier work
Excerpt: It seems likely that identification of caspase-2 substrates may provide valuable clues to its biological role. […] Apoptotic signalling by caspase-2 has been proposed to result from its processing of the pro-apoptotic Bcl-2 relative Bid.

[11] = preferred buffer, anti-Bid immunoblot, from caspase concentration cleaving half of the substrate

Molecule: EIF4B: translation initiation factor EIF4B
cleavage by caspase-2 versus other caspases (in words) (caspase-2 [1]; degradomics, lysates): more efficiently cleaved by caspase-2

Molecule: Ac-VDVAD-aldehyde
inhibition of caspase-2 compared with caspase-3 (in words) (caspase-2 [2]): inhibited caspases-2 and -3 with similar potencies
inhibition of caspase-3 compared with caspase-2 (in words) (caspase-3 [3]): inhibited caspases-2 and -3 with similar potencies

Molecule: Cux1: transcription factor Cux1
cleavage by caspase-2 (in words) (caspase-2 [1]): efficiently cleaved

Molecule: Ac-VDVPD-{AFC} [custom fluorogenic substrate based on the Runx1 cleavage site]
cleavage by caspase-3 (in words) (caspase-3 [4]): proteolysed this substrate more efficiently than Ac-VDVAD-AFC
cleavage by caspase-2 (in words) (caspase-2 [5]; purified caspase-2): enhanced sensitivity to caspase-2 relative to Ac-VDVAD-AFC; also recorded: cleaved by caspase-2 slightly better than Ac-VDVAD
selectivity for caspase-2 relative to caspase-3 (in words) (caspase-2 [5]; purified caspases-2 and -3): less specific than Ac-VDVAD-AFC for caspase-2 relative to caspase-3; also recorded: lacked the sought-after selectivity for caspase-2 over caspase-3
caspase-2 versus caspase-3 selectivity in cell lysates (in words) [6]: cleaved at similar rates in cell lysates containing active caspases-2 or -3

Molecule: Ac-VDVPD-aldehyde
inhibition of caspase-2 compared with caspase-3 (in words) (caspase-2 [2]): inhibited caspases-2 and -3 with similar potencies
inhibition of caspase-3 compared with caspase-2 (in words) (caspase-3 [3]): inhibited caspases-2 and -3 with similar potencies

second-order rate constant (estimate of kcat/KM), caspase-3 (caspase-3 [7]; [11]): 160 M⁻¹ s⁻¹
processing efficiency by caspase-8 relative to caspase-2 (caspase-8 [8]): about seven
second-order rate constant (estimate of kcat/KM), caspase-8 (caspase-8 [8]; [11]): 22000 M⁻¹ s⁻¹
second-order rate constant (estimate of kcat/KM), caspase-2 (caspase-2 [9]): 3200 M⁻¹ s⁻¹
B1: wild-type Bid: Bid protein bearing the native LQTD cleavage site (protein, UniProt P55957 1-195, looked up)
BH3-interacting domain death …: MDCEVNNGSSLRDECITNLLVFGFLQSCSDNSFRRELDALGHELPVLAPQWEGYDELQTDGNRSSHSRLGRIEADSESQEDIIRNIARHLAQVGDSMDRSIPPGLVNGLALQLRNTSRSEEDRNRDLATALEQLLQAYPRDMEKEKTMLVLALLLAKKVASHTPSLLRDVFHTTVNFINQNLRTYVRSLARNGMD
Bid cleavage by caspase-3 (in words) (caspase-3 [7]; immunoblot): barely sensitive to proteolysis by even high concentrations of caspase-3
Bid cleavage by caspases-2 and -8 (in words) (caspase-2 [1]; initial results): could cleave Bid with similar efficiency
Bid cleavage by caspase-8 compared with caspase-2 (in words) (caspase-8 [10]): the processing by caspase-8 was more efficient
